The values that follow come from patent publication US11324219B2, “Amide compound or salt thereof, agricultural and horticultural microbicide comprising the compound and the salt, and method for using the agricultural and horticultural microbicide” (Nihon Nohyaku Co., Ltd., priority 2018, dated 2022).

The structures appear in SMILES notation.

For orientation: melting point means the temperature, or range, at which the solid turns liquid. `CCS(=O)(=O)c1cc(C(F)(F)F)ccc1C(=O)Nc1oc(C(F)(F)F)cc1Br` [Compound 1-23, N-[3-bromo-5-(trifluoromethyl)furan-2-yl]-2-(ethylsulfonyl)-4-(trifluoromethyl)benzamide] registered a melting point of 160 to 162 °C.
